Our source for the Ki and melting point values is US8921397B2, “Benzofurane-piperidine compounds” (Hoffmann-La Roche Inc., priority 2011, dated 2014).

SMILES strings stand for the structures. pKi: −log10 of the molar value.

The target of series [1] is human D3 receptor (Homo sapiens (Human), UniProt P35462). The series can be described thus: Radioligand binding ([3H]-spiperone) to human D3 receptor, HEK293 EBNA membranes. The settings on record: HEK293 EBNA cells expressing human D3 receptor. The procedure: (§1) HEK293 EBNA cells were transiently transfected with expression plasmids encoding for the human D2 or D3 or for the human 5-HT2A receptor, respectively. The cells were harvested 48 h post-transfection, washed three times with cold PBS and stored at −80° C. prior to use. The pellet was suspended in cold 50 mM Tris-HCl buffer containing 10 mM EDTA (pH 7.4) and was homogenized with a Polytron (Kinematica AG, Basel, Switzerland) for 20-30 sec at 12.000 rpm. After centrifugation at 48.000×g for 30 min at 4° C., the pellet was resuspended in cold 10 mM Tris-HCl buffer containing 0.1 mM EDTA (pH 7.4), homogenized, and centrifuged as above. This pellet was further resuspended in a smaller volume of ice cold 10 mM Tris-HCl buffer containing 0.1 mM EDTA (pH 7.4) and homogenized with a Polytron for 20-30 sec at 12.000 rpm. The protein content of this homogenate was determined with the Bio-Rad (Bradford) Protein Assay (Biorad Laboratories GmbH, München, Germany) according to the instructions of the manufacturer using gamma globulin as the standard. This homogenate was stored at −80° C. in aliquots and thawed immediately prior to use.
human D3 receptor, sequence (P35462 whole entry): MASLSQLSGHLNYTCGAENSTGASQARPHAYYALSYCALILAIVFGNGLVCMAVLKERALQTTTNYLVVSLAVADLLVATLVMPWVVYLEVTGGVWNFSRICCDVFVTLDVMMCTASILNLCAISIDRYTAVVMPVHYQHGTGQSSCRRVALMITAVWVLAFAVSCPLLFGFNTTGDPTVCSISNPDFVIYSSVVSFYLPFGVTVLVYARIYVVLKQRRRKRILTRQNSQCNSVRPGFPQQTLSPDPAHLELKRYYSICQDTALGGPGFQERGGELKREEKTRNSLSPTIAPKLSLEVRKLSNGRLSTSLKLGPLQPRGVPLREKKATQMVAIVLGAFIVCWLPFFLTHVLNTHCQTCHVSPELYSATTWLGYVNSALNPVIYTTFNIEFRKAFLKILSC
(§2) Aliquots of membrane preparations were thawed at RT, resuspended in assay buffer (D2, D3: 50 mM Tris-HCl, 120 mM NaCl, 5 mM MgCl2, 1 mM EDTA, 5 mM KCl, 1.5 mM CaCl2, pH=7.4; 5-HT2A: 50 mM Tris-HCl, 10 mM MgCl2, 1 mM EGTA, pH=7.4), homogenized with a Polytron for 20-30 sec at 12.000 rpm and adjusted to a final concentration of approximately 7.5 μg protein/well (D2, D3) and 15 μg protein/well (5-HT2A), respectively.
(§3) The binding affinity (Ki) of the compounds was determined using radioligand binding.
(§4) Membranes were incubated in a total volume of 200 μl with a fixed concentration of radioligand (final concentration approximately 0.7 nM [^3H]-spiperone for D2, 0.5 nM [^3 H]-spiperone for D3, and 1.1 nM [^3H]-ketanserin for 5-HT2A) and ten concentrations of test compound in ranging between 10 μM-0.1 nM for 1 h at RT. At the end of the incubation, the reaction mixtures were filtered on to unifilter 96-well white microplates with bonded GF/C filters (Packard BioScience, Zürich, Switzerland; preincubated for 1 h in 0.1% polyethylenimine (PEI) in assay buffer) with a Filtermate 196 harvester (Packard BioScience) and washed 3 times with cold assay buffer. The nonspecific binding was determined with equally composed reaction mixtures in the presence of 10 μM unlabelled spiperone. Per well 45 μl of Microscint 40 (Perkin Elmer, Schwerzenbach, Switzerland) was added, plates for sealed, shaken for 20 min and counted for 3 min on a Topcount Microplate Scintillation Counter (Canberra Packard SA, Zürich, Switzerland) with quenching correction.
(§5) The CPM value for each duplicate of a concentration of competing compound was averaged (y1), then the % specific binding was calculated according to the equation (((y1−non-specific)/(total binding−non-specific))×100). Graphs were plotted with the % specific binding using XLfit, a curve-fitting program that iteratively plots the data using Levenberg-Marquardt algorithm. The single site competition analysis equation used was y=A+((B−A)/(1+((x/C)D))), where y is the % specific binding, A is the minimum y, B is the maximum y, C is the IC50, x is the log 10 of the concentration of the competing compound and D is the slope of the curve (the Hill Coefficient). From these curves the IC50 (inhibition concentration at which 50% specific binding of the radioligand was displaced) and Hill coefficient were determined. The affinity constant (Ki) was calculated using the Cheng-Prusoff equation Ki=(IC50/1+([L]/Kd), where [L] is the concentration of radioligand and Kd is the dissociation constant of the radioligand at the receptor as determined by the saturation isotherm.

For series [2], the target named is human 5-HT2A receptor (Homo sapiens (Human), UniProt P28223). The experiment in a line: Radioligand binding ([3H]-ketanserin) to human 5-HT2A receptor, HEK293 EBNA membranes. The settings on record: HEK293 EBNA cells expressing human 5-HT2A receptor. As for the experimental part:
The ability of the compounds to bind to the 5-HT2A, D3 and D2 receptors was determined using radioligand binding to cloned receptors selectively expressed in HEK-293 EBNA cells.
as §1, §2, §3, §4, §5

Series [3] deals with human D2 receptor (Homo sapiens (Human), UniProt P14416). The experiment in a line: Radioligand binding ([3H]-spiperone) to human D2 receptor, HEK293 EBNA membranes. The conditions noted are these: HEK293 EBNA cells expressing human D2 receptor. As for the experimental part: as §1, §2, §3, §4, §5
human D2 receptor, sequence (P14416 whole entry): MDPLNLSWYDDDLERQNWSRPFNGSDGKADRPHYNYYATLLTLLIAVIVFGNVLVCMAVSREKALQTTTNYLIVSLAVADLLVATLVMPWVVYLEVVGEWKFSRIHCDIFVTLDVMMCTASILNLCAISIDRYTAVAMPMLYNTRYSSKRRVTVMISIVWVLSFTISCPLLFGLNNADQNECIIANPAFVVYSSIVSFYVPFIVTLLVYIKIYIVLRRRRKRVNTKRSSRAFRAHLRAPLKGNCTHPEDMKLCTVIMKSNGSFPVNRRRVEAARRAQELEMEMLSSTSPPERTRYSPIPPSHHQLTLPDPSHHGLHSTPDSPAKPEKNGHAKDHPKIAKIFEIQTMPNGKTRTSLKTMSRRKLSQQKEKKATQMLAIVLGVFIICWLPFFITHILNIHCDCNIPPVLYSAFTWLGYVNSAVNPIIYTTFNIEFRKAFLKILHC

human 5-HT2A receptor, sequence (P28223 whole entry): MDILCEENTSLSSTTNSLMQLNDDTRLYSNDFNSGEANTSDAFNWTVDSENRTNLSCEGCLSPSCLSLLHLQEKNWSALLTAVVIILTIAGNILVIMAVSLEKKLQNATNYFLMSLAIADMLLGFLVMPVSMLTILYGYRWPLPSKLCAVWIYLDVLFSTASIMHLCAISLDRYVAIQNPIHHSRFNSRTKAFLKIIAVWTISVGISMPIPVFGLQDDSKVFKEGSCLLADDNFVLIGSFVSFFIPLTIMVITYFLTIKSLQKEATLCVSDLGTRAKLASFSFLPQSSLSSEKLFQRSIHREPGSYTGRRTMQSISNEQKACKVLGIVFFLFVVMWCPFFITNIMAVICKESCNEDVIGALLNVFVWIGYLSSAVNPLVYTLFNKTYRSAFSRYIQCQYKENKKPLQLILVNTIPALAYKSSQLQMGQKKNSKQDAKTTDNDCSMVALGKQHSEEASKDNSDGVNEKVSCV

With `O=C(CC1COCCO1)N[C@H]1CC[C@H](CCN2CCC(c3coc4ccccc34)CC2)CC1` (mixture of isomers) [Example 8, trans-N-{4-[2-(4-Benzofuran-3-yl-piperidin-1-yl)-ethyl]-cyclohexyl}-(RS)-2-[1,4]dioxan-2-yl-acetamide], the melting point was 172 °C. The negative-log Ki (pKi) in series [1] is 8.69. The negative logarithm of the Ki (pKi) in series [2] was 8.69.
`O=C(N[C@H]1CC[C@H](CCN2CCC(c3coc4ccccc34)CC2)CC1)C1CCOC1` (mixture of isomers) [Example 17, (RS)-Tetrahydro-furan-3-carboxylic acid trans-{4-[2-(4-benzofuran-3-yl-piperidin-1-yl)-ethyl]-cyclohexyl}-amide] returned a melting point of 183 °C. For the same compound, in series [3], the negative logarithm of the Ki (pKi) is 7.28. In addition, the pKi in series [2] is 8.23.
Compound `O=C(N[C@H]1CC[C@H](CCN2CCC(c3coc4ccccc34)CC2)CC1)C1CCCO1` (mixture of isomers) [Example 18, (RS)-Tetrahydro-furan-2-carboxylic acid trans-{4-[2-(4-benzofuran-3-yl-piperidin-1-yl)-ethyl]-cyclohexyl}-amide] yielded a melting point of 132 °C. Besides, the negative logarithm of the Ki (pKi) in series [3] is 7.09. Further, in series [1], the negative logarithm of the Ki (pKi) is 8.04. For the same compound, the negative logarithm of the Ki (pKi) in series [2] was 8.54.
The like results for `CCC(C)C(=O)N[C@H]1CC[C@H](CCN2CCC(c3coc4ccccc34)CC2)CC1` (mixture of isomers) [Example 31, trans-N-{4-[2-(4-Benzofuran-3-yl-piperidin-1-yl)-ethyl]-cyclohexyl}-(RS)-2-methyl-butyramide] were, in that order, 172 °C, 7.34, 8.32 and 8.18.
The like results for `O=C(N[C@H]1CC[C@H](CCN2CCC(c3coc4ccccc34)CC2)CC1)C(O)C(F)(F)F` (mixture of isomers) [Example 32, trans-N-{4-[2-(4-Benzofuran-3-yl-piperidin-1-yl)-ethyl]-cyclohexyl}-(RS)-3,3,3-trifluoro-2-hydroxy-propionamide] were, in that order, 206 °C, 7.33, 8.40 and 8.22.
For `CC(=O)N[C@H]1CC[C@H](CCN2CCC(c3coc4ccccc34)CC2)CC1` [Example 1, trans-N-{4-[2-(4-Benzofuran-3-yl-piperidin-1-yl)-ethyl]-cyclohexyl}-acetamide] the same measures were 162 °C, 7.30, 8.97 and 8.29.
For the compound `COCCC(=O)N[C@H]1CC[C@H](CCN2CCC(c3coc4ccccc34)CC2)CC1` [Example 2, trans-N-{4-[2-(4-Benzofuran-3-yl-piperidin-1-yl)-ethyl]-cyclohexyl}-3-methoxy-propionamide], the melting point stood at 136 °C. Also, the pKi in series [3] is 7.15. Also, the pKi in series [1] was 8.91. In addition, the pKi in series [2] was 8.33.
For `O=C(N[C@H]1CC[C@H](CCN2CCC(c3coc4ccccc34)CC2)CC1)C1CCOCC1` [Example 3, Tetrahydro-pyran-4-carboxylic acid trans-{4-[2-(4-benzofuran-3-yl-piperidin-1-yl)-ethyl]-cyclohexyl}-amide] the same measures were 175 °C, 7.43, 8.34 and 8.61.
For `O=C(CC1CCOCC1)N[C@H]1CC[C@H](CCN2CCC(c3coc4ccccc34)CC2)CC1` [Example 4, trans-N-{4-[2-(4-Benzofuran-3-yl-piperidin-1-yl)-ethyl]-cyclohexyl}-2-(tetrahydro-pyran-4-yl)-acetamide] the same measures were 175 °C, 7.11, 8.50 and 8.27.
For `CCC(=O)N[C@H]1CC[C@H](CCN2CCC(c3coc4ccccc34)CC2)CC1` [Example 5, trans-N-{4-[2-(4-Benzofuran-3-yl-piperidin-1-yl)-ethyl]-cyclohexyl}-propionamide] the same measures were 162 °C, 7.32, 8.91 and 8.34.
`COCC(=O)N[C@H]1CC[C@H](CCN2CCC(c3coc4ccccc34)CC2)CC1` [Example 6, trans-N-{4-[2-(4-Benzofuran-3-yl-piperidin-1-yl)-ethyl]-cyclohexyl}-2-methoxy-acetamide] yielded a melting point of 115 °C. Moreover, the negative-log Ki (pKi) in series [3] was 7.10. In addition, the negative logarithm of the Ki (pKi) in series [1] is 8.45. Further, the negative logarithm of the Ki (pKi) in series [2] was 8.47.
With `CS(=O)(=O)CC(=O)N[C@H]1CC[C@H](CCN2CCC(c3coc4ccccc34)CC2)CC1` [Example 7, trans-N-{4-[2-(4-Benzofuran-3-yl-piperidin-1-yl)-ethyl]-cyclohexyl}-2-methanesulfonyl-acetamide], the melting point turned out to be 187 °C. The negative-log Ki (pKi) in series [3] is 7.29. For the same compound, the pKi in series [1] was 8.84. Besides, the pKi in series [2] was 8.45.
The like results for `O=C(N[C@H]1CC[C@H](CCN2CCC(c3coc4ccccc34)CC2)CC1)c1ccccc1` [Example 9, trans-N-{4-[2-(4-Benzofuran-3-yl-piperidin-1-yl)-ethyl]-cyclohexyl}-benzamide] were, in that order, 189 °C, 7.49, 8.87 and 8.36.
Consider `Cc1cc(CC(=O)N[C@H]2CC[C@H](CCN3CCC(c4coc5ccccc45)CC3)CC2)on1` [Example 10, trans-N-{4-[2-(4-Benzofuran-3-yl-piperidin-1-yl)-ethyl]-cyclohexyl}-2-(3-methyl-isoxazol-5-yl)-acetamide], for which the melting point is 165 °C. In series [3], the pKi was 7.08. Also, the pKi in series [1] is 9.17. Also, the negative logarithm of the Ki (pKi) in series [2] was 8.11.
The like results for `O=C(CO)N[C@H]1CC[C@H](CCN2CCC(c3coc4ccccc34)CC2)CC1` [Example 11, trans-N-{4-[2-(4-Benzofuran-3-yl-piperidin-1-yl)-ethyl]-cyclohexyl}-2-hydroxy-acetamide] were, in that order, 161 °C, 7.33, 8.83 and 8.31.
The like results for `O=C(CC(F)(F)F)N[C@H]1CC[C@H](CCN2CCC(c3coc4ccccc34)CC2)CC1` [Example 12, trans-N-{4-[2-(4-Benzofuran-3-yl-piperidin-1-yl)-ethyl]-cyclohexyl}-3,3,3-trifluoro-propionamide] were, in that order, 182 °C, 7.37, 9.00 and 8.09.
For `O=C(N[C@H]1CC[C@H](CCN2CCC(c3coc4ccccc34)CC2)CC1)c1ccc(N2CCOCC2)cc1` [Example 13, trans-N-{4-[2-(4-Benzofuran-3-yl-piperidin-1-yl)-ethyl]-cyclohexyl}-4-morpholin-4-yl-benzamide] the same measures were 249 °C, 6.39, 8.13 and 7.96.

Broadly, the pKi is the Ki on a negative log10 scale, so that one unit is a factor of ten. By melting point is commonly meant the temperature of the solid-liquid transition.
